How the values were obtained:
Type in all cases: biochemical
HDAC6 enzyme = target: T1, HDAC6 enzyme (Homo sapiens, UniProt Q9UBN7); experiment: HDAC1/6 Enzyme Inhibitory Assay (HDAC-Glo I/II Assay kit), HDAC6; conditions: 1 μM test compound; wells without enzyme = 100% inhibition; read-out: HDAC6 inhibitory rate (%) (1 μM)
T1 construct: transducing full length HDAC1 and HDAC6 genes into Sf-9 insect cells; GST; purchased SignalChem; host or cells: Sf-9 insect cells
T1 sequence (Q9UBN7 1-1215): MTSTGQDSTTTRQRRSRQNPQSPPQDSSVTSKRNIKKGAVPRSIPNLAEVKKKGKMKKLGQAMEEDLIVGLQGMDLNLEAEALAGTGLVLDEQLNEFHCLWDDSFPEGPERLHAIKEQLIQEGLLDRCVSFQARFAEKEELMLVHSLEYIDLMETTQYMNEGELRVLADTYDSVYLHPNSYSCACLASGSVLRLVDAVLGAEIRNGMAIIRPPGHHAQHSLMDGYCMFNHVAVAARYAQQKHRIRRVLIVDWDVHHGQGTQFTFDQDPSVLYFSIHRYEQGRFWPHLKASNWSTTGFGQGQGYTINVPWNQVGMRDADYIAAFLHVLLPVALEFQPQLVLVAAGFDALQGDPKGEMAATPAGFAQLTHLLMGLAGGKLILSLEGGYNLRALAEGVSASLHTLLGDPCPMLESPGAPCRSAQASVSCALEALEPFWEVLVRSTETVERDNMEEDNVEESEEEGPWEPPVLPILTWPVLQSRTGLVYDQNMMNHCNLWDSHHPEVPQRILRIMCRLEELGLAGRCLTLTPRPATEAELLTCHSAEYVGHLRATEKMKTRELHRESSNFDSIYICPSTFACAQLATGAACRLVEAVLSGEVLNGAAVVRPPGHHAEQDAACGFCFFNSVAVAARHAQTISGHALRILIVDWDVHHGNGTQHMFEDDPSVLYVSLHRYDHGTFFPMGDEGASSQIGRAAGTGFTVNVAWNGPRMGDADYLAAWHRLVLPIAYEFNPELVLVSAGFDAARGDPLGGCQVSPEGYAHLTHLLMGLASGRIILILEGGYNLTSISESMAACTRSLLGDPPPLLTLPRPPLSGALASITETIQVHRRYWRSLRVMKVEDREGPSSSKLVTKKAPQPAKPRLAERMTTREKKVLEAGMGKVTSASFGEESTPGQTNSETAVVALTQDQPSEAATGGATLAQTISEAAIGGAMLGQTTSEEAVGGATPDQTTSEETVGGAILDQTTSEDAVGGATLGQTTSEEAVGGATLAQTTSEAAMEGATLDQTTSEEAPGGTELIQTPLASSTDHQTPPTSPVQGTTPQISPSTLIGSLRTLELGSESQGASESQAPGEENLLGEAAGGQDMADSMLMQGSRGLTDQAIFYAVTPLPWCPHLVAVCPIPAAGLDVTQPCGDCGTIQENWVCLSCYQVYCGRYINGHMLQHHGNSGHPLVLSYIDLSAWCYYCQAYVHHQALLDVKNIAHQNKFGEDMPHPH
Experimental: (§1) HDAC1/6 Enzyme Inhibitory Assay
(§2) HDAC1 enzyme and HDAC6 enzyme each prepared by transducing full length HDAC1 and HDAC6 genes into Sf-9 insect cells and purifying by GST affinity column were purchased from SignalChem. Using these enzymes, HDAC1 and/or HDAC6 enzyme inhibitory activities of the compound of the present invention were evaluated. Enzymes were used after preserved at −70° C. HDAC1 or HDAC6 enzyme inhibitory activity of the compound of the present invention was measured using HDAC-Glo™ I/II Assay kit (Promega) according to the following experimental method. The test compound diluted with assay buffer (24 mM Tris-HCl (pH 7.5), 1 mM MgCl2, 0.35 mM KCl, 135 mM NaCl, 0.6 mM Glutathione, 0.01% Tween-20) was added to a 384-well plate by each 2 μL. Then, HDAC1 or HDAC6 enzyme solution diluted with assay buffer was added thereto by each 4 μL, and the plate was incubated at room temperature for 60 min. After incubated, HDAC substrate-Developer solution prepared according to Promega protocol attached to the assay kit was added to the 384-well plate by each 2 μL, and the enzyme reaction was started. After reacting at room temperature for 20 min, luminescence level was measured using plate reader Envision (PerkinElmer). The inhibitory activity of each compound was calculated as a relative activity value when luminescence level in wells without enzyme is considered as 100% inhibition.

HDAC1 enzyme = target: T2, HDAC1 enzyme (Homo sapiens, UniProt Q13547); experiment: HDAC1/6 Enzyme Inhibitory Assay (HDAC-Glo I/II Assay kit), HDAC1; conditions: 1 μM test compound; wells without enzyme = 100% inhibition; read-out: HDAC1 inhibitory rate (%) (1 μM)
T2 construct: transducing full length HDAC1 and HDAC6 genes into Sf-9 insect cells; GST; purchased SignalChem; host or cells: Sf-9 insect cells
Experimental: as §1, §2

HDAC9 enzyme = target: T3, HDAC9 enzyme (Homo sapiens, UniProt Q9UKV0); experiment: HDAC9 Enzyme Inhibitory Assay (HDAC-Glo class IIa); conditions: 1 μM test compound; wells without enzyme = 100% inhibition; read-out: HDAC9 inhibitory rate (%) (1 μM)
T3 construct: transducing full length HDAC9 gene into Sf-9 insect cells; made in house; host or cells: Sf-9 insect cells
Experimental: HDAC9 Enzyme Inhibitory Assay
Enzyme was prepared by transducing full length HDAC9 gene into Sf-9 insect cells and purifying by Ni-NTA affinity column, and HDAC9 enzyme inhibitory activity was evaluated. Enzymes were used after preserved at −70° C. HDAC9 enzyme inhibitory activity of the test compound was measured using HDAC-Glo class IIa (Promega) according to the following experimental method. The test compound diluted with assay buffer (24 mM Tris-HCl (pH 7.5), 1 mM MgCl2, 0.35 mM KCl, 135 mM NaCl, 0.6 mM Glutathione, 0.01% Tween-20) was added to a 384-well plate by each 2 μL. Then, HDAC9 enzyme solution diluted with assay buffer was added thereto by each 2 μL, and the plate was incubated at room temperature for 60 min. After incubated, HDAC substrate-Developer solution prepared according to Promega protocol was added to the 384-well plate by each 4 μL, and the enzyme reaction was started. After reacting at room temperature for 20 min, luminescence level was measured using plate reader Envision (PerkinElmer). The inhibitory activity of each compound was calculated as a relative activity value when luminescence level in wells without enzyme is considered as 100% inhibition.

T3 sequence (Q9UKV0 whole entry, species assumed): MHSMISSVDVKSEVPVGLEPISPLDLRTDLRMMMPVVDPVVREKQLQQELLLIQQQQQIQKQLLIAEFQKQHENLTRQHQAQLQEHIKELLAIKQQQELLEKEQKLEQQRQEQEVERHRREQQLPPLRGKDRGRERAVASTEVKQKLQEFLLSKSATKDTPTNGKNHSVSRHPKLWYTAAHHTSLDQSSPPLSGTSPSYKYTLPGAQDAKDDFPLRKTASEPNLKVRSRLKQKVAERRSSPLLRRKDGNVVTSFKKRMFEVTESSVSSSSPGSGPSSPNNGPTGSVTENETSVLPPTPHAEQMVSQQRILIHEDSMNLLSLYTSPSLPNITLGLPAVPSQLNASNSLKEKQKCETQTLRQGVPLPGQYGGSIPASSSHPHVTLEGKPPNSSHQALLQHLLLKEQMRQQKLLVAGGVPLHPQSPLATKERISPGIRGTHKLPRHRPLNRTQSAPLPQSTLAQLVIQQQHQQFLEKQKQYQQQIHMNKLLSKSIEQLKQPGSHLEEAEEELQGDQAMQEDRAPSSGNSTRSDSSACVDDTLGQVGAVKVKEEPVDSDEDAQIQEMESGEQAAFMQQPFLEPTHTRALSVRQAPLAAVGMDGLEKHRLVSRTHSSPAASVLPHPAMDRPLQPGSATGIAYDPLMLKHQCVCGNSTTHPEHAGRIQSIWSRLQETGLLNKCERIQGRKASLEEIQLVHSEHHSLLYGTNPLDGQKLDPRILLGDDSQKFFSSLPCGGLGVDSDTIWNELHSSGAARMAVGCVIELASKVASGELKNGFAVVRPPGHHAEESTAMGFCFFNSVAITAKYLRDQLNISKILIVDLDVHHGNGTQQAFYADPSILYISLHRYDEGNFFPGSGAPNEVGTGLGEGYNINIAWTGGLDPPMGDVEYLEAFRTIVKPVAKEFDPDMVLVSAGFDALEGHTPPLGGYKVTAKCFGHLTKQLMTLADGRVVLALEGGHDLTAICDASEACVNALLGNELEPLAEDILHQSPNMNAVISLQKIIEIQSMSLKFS
T2 sequence (Q13547 whole entry): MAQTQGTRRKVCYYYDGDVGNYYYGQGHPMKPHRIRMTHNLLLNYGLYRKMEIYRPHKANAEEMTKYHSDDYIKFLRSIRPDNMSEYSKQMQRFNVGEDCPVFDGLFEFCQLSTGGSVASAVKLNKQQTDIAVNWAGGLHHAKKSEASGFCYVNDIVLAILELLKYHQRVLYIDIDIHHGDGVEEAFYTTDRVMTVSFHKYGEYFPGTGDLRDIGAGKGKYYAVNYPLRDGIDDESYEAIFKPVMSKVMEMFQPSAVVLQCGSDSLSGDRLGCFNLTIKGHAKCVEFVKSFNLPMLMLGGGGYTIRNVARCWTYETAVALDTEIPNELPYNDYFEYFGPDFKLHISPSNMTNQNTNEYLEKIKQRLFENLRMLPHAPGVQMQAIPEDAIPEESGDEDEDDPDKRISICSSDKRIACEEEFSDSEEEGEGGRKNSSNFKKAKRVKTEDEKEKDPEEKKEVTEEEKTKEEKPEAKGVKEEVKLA

| Compound | inhibition at 1 µM (HDAC6 enzyme) [%] | inhibition at 1 µM (HDAC1 enzyme) [%] | inhibition at 1 µM (HDAC9 enzyme) [%] |
| --- | --- | --- | --- |
| CC(C)(C)OC(=O)N1CC[C@@H](N2Cc3ccc(-c4noc(C(F)(F)F)n4)cc3C2=O)[C@H](c2ccccc2)C1 [Example 13, tert-butyl (3R,4R)-4-(1-oxo-6-(5-(trifluoromethyl)-1,2,4-oxadiazol-3-yl)-1,3-dihydro-2H-isoindol-2-yl)-3-phenylpiperidine-1-carboxylate] | 101 | 53 | 84 |
| CC(C)(C)OC(=O)N[C@H]1CCCC[C@H]1N1Cc2ccc(-c3noc(C(F)(F)F)n3)cc2C1=O [Example 85, tert-butyl ((1S,2R)-2-(1-oxo-6-(5-(trifluoromethyl)-1,2,4-oxadiazol-3-yl)-1,3-dihydro-2H-isoindol-2-yl)cyclohexyl)carbamate] | 98 | 41 | 67 |
| CC(C)(C)OC(=O)N1CC[C@H](N2Cc3ccc(-c4noc(C(F)(F)F)n4)cc3C2=O)[C@H](c2ccccc2)C1 [Example 14, tert-butyl (3R,4S)-4-(1-oxo-6-(5-(trifluoromethyl)-1,2,4-oxadiazol-3-yl)-1,3-dihydro-2H-isoindol-2-yl)-3-phenylpiperidine-1-carboxylate] | 68 | 0 | 48 |
| O=C(N[C@@H]1CCCC[C@H]1N1Cc2ccc(-c3noc(C(F)(F)F)n3)cc2C1=O)c1cocn1 [Example 103, N-((1R,2R)-2-(1-oxo-6-(5-(trifluoromethyl)-1,2,4-oxadiazol-3-yl)-1,3-dihydro-2H-isoindol-2-yl)cyclohexyl)-1,3-oxazole-4-carboxamide] | 102 | 14 | 55 |
| Cn1cc(C(=O)N[C@@H]2CCCC[C@H]2N2Cc3ccc(-c4noc(C(F)(F)F)n4)cc3C2=O)cn1 [Example 112, 1-methyl-N-((1R,2R)-2-(1-oxo-6-(5-(trifluoromethyl)-1,2,4-oxadiazol-3-yl)-1,3-dihydro-2H-isoindol-2-yl)cyclohexyl)-1H-pyrazole-4-carboxamide] | 96 | 13 | 57 |
| CC1(C(=O)N[C@@H]2CCCC[C@H]2N2Cc3ccc(-c4noc(C(F)(F)F)n4)cc3C2=O)CC1(F)F (stereo partly drawn) [Example 111, 2,2-difluoro-1-methyl-N-((1R,2R)-2-(1-oxo-6-(5-(trifluoromethyl)-1,2,4-oxadiazol-3-yl)-1,3-dihydro-2H-isoindol-2-yl)cyclohexyl) cyclopropanecarboxamide] | 99 | 14 | 69 |
| O=C(N[C@@H]1CCCC[C@H]1N1Cc2ccc(-c3noc(C(F)(F)F)n3)cc2C1=O)N1C2CCCC1COC2 [Example 167, N-((1R,2R)-2-(1-oxo-6-(5-(trifluoromethyl)-1,2,4-oxadiazol-3-yl)-1,3-dihydro-2H-isoindol-2-yl)cyclohexyl)-3-oxa-9-azabicyclo[3.3.1]nonane-9-carboxamide] | 101 | 7 | 34 |
| O=C1CCCN1[C@@H]1CCCC[C@H]1N1Cc2ccc(-c3noc(C(F)(F)F)n3)cc2C1=O (relative stereo) [Example 18, trans-2-(2-(2-oxopyrrolidin-1-yl)cyclohexyl)-6-(5-(trifluoromethyl)-1,2,4-oxadiazol-3-yl)isoindolin-1-one] | 99 |  | 47 |
| O=C1c2ccc(-c3noc(C(F)(F)F)n3)cc2CN1c1ccccc1 [Example 1, 2-phenyl-5-(5-(trifluoromethyl)-1,2,4-oxadiazol-3-yl)isoindolin-1-one] | 8 |  | 55 |

More lines, now with the values ahead:

| inhibition at 1 µM (HDAC6 enzyme) [%] | inhibition at 1 µM (HDAC1 enzyme) [%] | inhibition at 1 µM (HDAC9 enzyme) [%] | Compound |
| --- | --- | --- | --- |
| 79 | -3 | 37 | CN1CC(C(=O)N[C@@H]2CCCC[C@H]2N2Cc3ccc(-c4noc(C(F)(F)F)n4)cc3C2=O)CC1=O (stereo partly drawn) [Example 120, 1-methyl-5-oxo-N-((1R,2R)-2-(1-oxo-6-(5-(trifluoromethyl)-1,2,4-oxadiazol-3-yl)-1,3-dihydro-2H-isoindol-2-yl)cyclohexyl)pyrrolidine-3-carboxamide] |
| 96 | 6 | 43 | O=C(NC1COC1)N[C@@H]1CCCC[C@H]1N1Cc2ccc(-c3noc(C(F)(F)F)n3)cc2C1=O [Example 165, 1-oxetan-3-yl-3-((1R,2R)-2-(1-oxo-6-(5-(trifluoromethyl)-1,2,4-oxadiazol-3-yl)-1,3-dihydro-2H-isoindol-2-yl)cyclohexyl)urea] |
| 99 | 5 | 47 | O=C(N[C@@H]1CCCC[C@H]1N1Cc2ccc(-c3noc(C(F)(F)F)n3)cc2C1=O)C1COC1 [Example 127, N-((1R,2R)-2-(1-oxo-6-(5-(trifluoromethyl)-1,2,4-oxadiazol-3-yl)-1,3-dihydro-2H-isoindol-2-yl)cyclohexyl)oxetane-3-carboxamide] |
| 98 | 4 | 45 | O=C(N[C@@H]1CCCC[C@H]1N1Cc2ccc(-c3noc(C(F)(F)F)n3)cc2C1=O)C1CCOC1 (stereo partly drawn) [Example 116, N-((1R,2R)-2-(1-oxo-6-(5-(trifluoromethyl)-1,2,4-oxadiazol-3-yl)-1,3-dihydro-2H-isoindol-2-yl)cyclohexyl)tetrahydrofuran-3-carboxamide] |
| 86 | 0 | 30 | O=C1C[C@H](C(=O)N[C@@H]2CCCC[C@H]2N2Cc3ccc(-c4noc(C(F)(F)F)n4)cc3C2=O)CN1 [Example 130, (3S)-5-oxo-N-((1R,2R)-2-(1-oxo-6-(5-(trifluoromethyl)-1,2,4-oxadiazol-3-yl)-1,3-dihydro-2H-isoindol-2-yl)cyclohexyl)pyrrolidine-3-carboxamide] |
| 99 |  | 66 | O=C1CCCN1[C@@H]1CCCC[C@H]1N1Cc2ccc(-c3noc(C(F)(F)F)n3)cc2C1=O [Example 191, 2-((1R,2R)-2-(2-oxopyrrolidin-1-yl)cyclohexyl)-6-(5-(trifluoromethyl)-1,2,4-oxadiazol-3-yl)isoindolin-1-one] |

Reference: patent US10308643B2, “Heterocyclic compound” (Takeda Pharmaceutical Company Limited, priority 2015, dated 2019)
